Measurements: ChEMBL document CHEMBL4229572, “VU6007477, a Novel M1 PAM Based on a Pyrrolo[2,3-b]pyridine Carboxamide Core Devoid of Cholinergic Adverse Events” (ACS Med Chem Lett, 2018)
Residue numbers refer to the chain shown, from its start.

Assays:
[1] = target: T1, Muscarinic acetylcholine receptor M1 (Rattus norvegicus) (UniProt P08482); assay: (§1) Positive allosteric modulation of rat M1 receptor expressed in CHO cells assessed as increase in acetylcholine-induced calcium mobilization pretreated for 2.5 mins followed by acetylcholine addition and measured after 1 min by Fluo-4-AM dye based assay; assay type: functional, cell-based
T1 sequence (whole entry): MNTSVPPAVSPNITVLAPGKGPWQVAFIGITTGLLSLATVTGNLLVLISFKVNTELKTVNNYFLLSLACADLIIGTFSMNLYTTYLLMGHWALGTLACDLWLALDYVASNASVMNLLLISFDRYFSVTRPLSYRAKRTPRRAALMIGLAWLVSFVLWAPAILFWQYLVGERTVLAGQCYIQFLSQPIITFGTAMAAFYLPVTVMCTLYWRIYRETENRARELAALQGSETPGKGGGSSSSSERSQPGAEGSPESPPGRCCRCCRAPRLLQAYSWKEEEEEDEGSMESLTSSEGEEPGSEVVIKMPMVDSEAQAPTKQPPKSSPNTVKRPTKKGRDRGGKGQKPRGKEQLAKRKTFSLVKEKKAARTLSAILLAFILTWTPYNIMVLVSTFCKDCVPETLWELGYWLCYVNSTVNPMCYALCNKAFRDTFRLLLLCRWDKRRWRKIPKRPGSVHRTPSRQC

[2] = target: T2, Muscarinic acetylcholine receptor M1 (Rattus norvegicus, UniProt P08482); assay: as §1; assay type: functional, cell-based; conditions: read-out: EC50
T2 sequence (P08482 whole entry): T1 sequence (whole entry)

[3] = target: T3, Muscarinic acetylcholine receptor M1 (Homo sapiens) (UniProt P11229); assay: (§2) Positive allosteric modulation of human M1 receptor expressed in CHO cells assessed as increase in acetylcholine-induced calcium mobilization pretreated for 2.5 mins followed by acetylcholine addition and measured after 1 min by Fluo-4-AM dye based assay; assay type: functional, cell-based
T3 sequence (whole entry): T1 sequence (whole entry) with V5A, S254T, S309P, K320R, G337A, V413I

[4] = target: T4, Muscarinic acetylcholine receptor M1 (Homo sapiens, UniProt P11229); assay: as §2; assay type: functional, cell-based
T4 sequence (P11229 whole entry): T1 sequence (whole entry) with V5A, S254T, S309P, K320R, G337A, V413I

[5] = target: T4, Muscarinic acetylcholine receptor M1; assay: Agonist activity at human M1 receptor expressed in CHO cells assessed as increase in calcium mobilization measured after 2.5 mins by Fluo-4-AM dye based assay; assay type: functional, cell-based
[6] = Protein binding in rat plasma assessed as unbound fraction at 5 uL measured after 4 hrs by LC-MS/MS based equilibrium dialysis method; assay type: ADME, cell-free
[7] = Protein binding in human plasma assessed as unbound fraction at 5 uL measured after 4 hrs by LC-MS/MS based equilibrium dialysis method; assay type: ADME, cell-free
[8] = Total brain to plasma partition coefficient, Kp in cannulated Sprague-Dawley rat at 0.2 mg/kg, iv administered via jugular vein as cassette dose measured after 0.25 hrs by LC-MS/MS analysis; assay type: ADME, organism-based; conditions: Sprague-Dawley, brain and plasma
[9] = Ratio of unbound brain to plasma concentration in C57BL/6J mouse at 100 mg/kg, ip after 1 hr by LC-MS/MS analysis; assay type: ADME, organism-based; conditions: brain and plasma, read-out: K(p,uu,brain)
Mus musculus = assay: Cholinergic toxicity in C57BL/6J mouse assessed as induction of seizure activity at 100 mg/kg, ip measured within 30 mins; assay type: organism-based; conditions: in vivo, 0.5 h
[10] = target: T5, Muscarinic acetylcholine receptor M2 (Homo sapiens, UniProt P08172); assay: Positive allosteric modulation of human M2 receptor expressed in CHO cells co-expressing Gqi5 assessed as increase in acetylcholine-induced calcium mobilization pretreated for 2.5 mins followed by acetylcholine addition and measured after 1 min by Fluo-4-AM dye based assay; assay type: functional, cell-based
T5 sequence (P08172 whole entry): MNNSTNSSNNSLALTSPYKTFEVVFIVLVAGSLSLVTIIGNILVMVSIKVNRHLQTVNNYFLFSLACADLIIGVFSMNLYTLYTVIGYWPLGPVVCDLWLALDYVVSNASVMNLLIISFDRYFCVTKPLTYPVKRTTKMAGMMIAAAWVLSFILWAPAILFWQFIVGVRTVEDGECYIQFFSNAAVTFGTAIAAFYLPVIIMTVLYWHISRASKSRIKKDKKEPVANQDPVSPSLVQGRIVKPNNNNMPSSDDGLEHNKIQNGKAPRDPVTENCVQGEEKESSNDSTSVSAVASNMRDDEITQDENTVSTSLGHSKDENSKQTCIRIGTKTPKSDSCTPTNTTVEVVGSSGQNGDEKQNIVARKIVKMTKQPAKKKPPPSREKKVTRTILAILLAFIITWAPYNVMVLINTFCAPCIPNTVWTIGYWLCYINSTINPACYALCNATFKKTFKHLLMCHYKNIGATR

[11] = target: Muscarinic acetylcholine receptor M3 (Homo sapiens, UniProt P20309); assay: Positive allosteric modulation of human M3 receptor expressed in CHO cells assessed as increase in acetylcholine-induced calcium mobilization pretreated for 2.5 mins followed by acetylcholine addition and measured after 1 min by Fluo-4-AM dye based assay; assay type: functional, cell-based
[12] = target: T6, Muscarinic acetylcholine receptor M4 (Homo sapiens, UniProt P08173); assay: Positive allosteric modulation of human M4 receptor expressed in CHO cells co-expressing Gqi5 assessed as increase in acetylcholine-induced calcium mobilization pretreated for 2.5 mins followed by acetylcholine addition and measured after 1 min by Fluo-4-AM dye based assay; assay type: functional, cell-based
T6 sequence (P08173 whole entry): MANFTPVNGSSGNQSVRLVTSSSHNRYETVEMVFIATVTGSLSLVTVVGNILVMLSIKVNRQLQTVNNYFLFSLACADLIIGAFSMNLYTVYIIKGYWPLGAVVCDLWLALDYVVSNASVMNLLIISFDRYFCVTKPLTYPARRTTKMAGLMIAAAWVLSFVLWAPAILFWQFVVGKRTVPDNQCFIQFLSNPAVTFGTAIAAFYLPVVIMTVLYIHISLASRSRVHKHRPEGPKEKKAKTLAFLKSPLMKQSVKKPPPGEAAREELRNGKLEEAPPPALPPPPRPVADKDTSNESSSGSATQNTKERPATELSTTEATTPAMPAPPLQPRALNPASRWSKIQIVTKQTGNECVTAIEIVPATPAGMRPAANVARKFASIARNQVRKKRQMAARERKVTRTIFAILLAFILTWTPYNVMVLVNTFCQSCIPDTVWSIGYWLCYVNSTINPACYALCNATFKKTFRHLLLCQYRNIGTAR

P-gp = assay: Substrate activity at P-gp (unknown origin) assessed as apparent permeability; assay type: ADME; conditions: human, not told

Muscarinic acetylcholine receptor M3, sequence (P20309 whole entry): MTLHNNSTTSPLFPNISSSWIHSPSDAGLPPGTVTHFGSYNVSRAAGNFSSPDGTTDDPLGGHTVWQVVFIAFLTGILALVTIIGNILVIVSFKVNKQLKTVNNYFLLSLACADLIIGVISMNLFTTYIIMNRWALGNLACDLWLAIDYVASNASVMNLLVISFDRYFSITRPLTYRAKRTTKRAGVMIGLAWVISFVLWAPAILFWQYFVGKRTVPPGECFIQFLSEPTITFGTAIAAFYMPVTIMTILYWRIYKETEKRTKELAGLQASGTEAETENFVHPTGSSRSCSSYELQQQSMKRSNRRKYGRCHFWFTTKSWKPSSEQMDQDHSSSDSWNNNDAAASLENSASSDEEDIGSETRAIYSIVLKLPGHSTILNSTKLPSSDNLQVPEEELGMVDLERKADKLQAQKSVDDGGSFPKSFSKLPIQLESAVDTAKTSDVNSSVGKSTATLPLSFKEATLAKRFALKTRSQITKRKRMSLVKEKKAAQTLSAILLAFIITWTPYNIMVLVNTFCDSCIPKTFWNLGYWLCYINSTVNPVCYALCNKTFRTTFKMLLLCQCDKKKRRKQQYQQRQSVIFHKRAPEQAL

%max [1]: 93%
pKb [1]: 4.82
EC50 [2]: 0.23 µM
%max [3]: 84%
EC50 [4]: 0.32 µM
EC50 [5]: 0.324 µM
fraction unbound at 4 h, 5 uL [6]: 0.06
fraction unbound at 4 h, 5 uL [7]: 0.04
Kp at 0.25 h [8]: 0.28
Kp uu at 1 h [9]: 0.18
EC50 [10]: > 30 µM
EC50 [11]: > 30 µM
EC50 [12]: > 30 µM
Papp (P-gp): 12 ×10⁻⁶ cm/s
Compound: Cn1cc(-c2ccc(Cc3cc(C(=O)NC4CCOCC4)nc4c3ccn4C)cn2)cn1
Activity (Mus musculus): Non-Toxic
